In patent publication US20250032624A1, “SMALL MOLECULE DEGRADATION METHODS FOR TREATING ALS/FTD” (University of Florida Research Foundation, Incorporated, priority 2021, published 2025):

What was measured:
[1] = test system: RAN translation of r(G4C2)66; assay: RAN translation assay in transfected HEK293T cells; format: cell-based; conditions: read-out: IC50 of GFP signal (RAN translation)
Procedure: FIG. 8A is a schematic of co-transfection of a No ATG-d(G4C2)66-GFP (SEQ ID NO: 45) plasmid and an ATG-mCherry plasmid into HEK293T cells allows for RAN translation to be measured based on the GFP signal. The mCherry signal measures canonical translation. […] Error bars represent SD.
HEK293T cells were cultured according to the methods described above. After reaching ˜80% confluency, HEK293T cells were batch-transfected, according to the manufacturer's protocol, in 100 mm dishes using the Lipofectamine 3000 transfection system (Thermo Fischer) for 5 hours with […] of a plasmid encoding r(G4C2)66-no ATG-nano-luciferase and 1 μg of a plasmid encoding SV40-Firefly luciferase (Life Technologies). Cells were seeded into a 384-well plate and incubated overnight. Compounds were treated in <0.1% DMSO final concentration for 24 hours. RAN and canonical translation were measured using a Dual-Luciferase® Reporter Assay System (Promega) following the manufacturer's protocol. Experiments were performed as biological triplicates (n=3). […] in untransfected cells were measured to determine the background signal.

r(G4C2)8 = assay: In vitro RNase L-mediated cleavage of 32P-labeled r(G4C2)8, gel analysis; format: biochemical; conditions: 10 μM and 20 μM compound, constant RNase L
Procedure: The 5′ end of r(G4C2)8 (SEQ ID NO: 1) (a model of r(G4C2)^exp) was radiolabeled with ^32P and purified on a denaturing polyacrylamide gel (15%), as previously described^31,32. After purification, labeled RNA (25 nM) was folded in 1×RNase L buffer (25 mM Tris-HCl, pH 7.4, and 100 mM NaCl) for 5 minutes at 95° C. The folded RNA was cooled to room temperature and 2-mercaptoethanol (7 mM final concentration), ATP (50 μM final concentration), and MgCl2 (10 mM final concentration) were added to the solution. Dilutions of compound in the folded RNA solution were then made and incubated for 15 minutes at room temperature. After the incubation, RNase L was added to a final concentration 50 nM. Samples were incubated at 37° C. overnight. Cleavage fragments were then separated on a denaturing 15% polyacrylamide gel, imaged by autoradiography (Typhoon FLA 9500), and quantified using the QuantityOne software (BioRad). All experiments were performed in duplicate.

[2] = test system: iPSC differentiated motor neurons (iPSNs); assay: Cell viability in iPSNs; format: cell-based, human; conditions: doses up to 1 μM
Procedure: Patient-derived LCLs were seeded overnight in 96-well plates (˜10^4 cells/well) and treated with compounds for 96 hours. Cell viability was measured using the CellTiter-Fluor™ Cell Viability Assay (Promega) per the manufacturer's protocol. iPSC cell viability was measured by seeding cells in Matrigel-coated 6-well plates with Basal medium (iPSC maintenance described above). After overnight incubation, the medium was replaced with fresh medium containing compounds diluted in 0.1% DMSO. Cells were treated with compound for 96 hours. Cell viability was measured using the AlamarBlue™ Cell Viability Reagent (DAL1025, Thermo Fisher Scientific) per the manufacturer's protocol. iPSN cell viability was measured by […]

[3] = test system: transcripts that contain shorter, non-pathogenic r(G4C2) repeats; assay: RT-qPCR of eight transcripts with shorter, non-pathogenic r(G4C2) repeats in C9orf72 iPSCs; format: cell-based, human; conditions: repeat length 2-4, RT-qPCR
Procedure: Measuring Levels of C9orf72 and C9orf72 Variants by RT-qPCR. LCLs and iPSCs were seeded in 6-well plates (˜10^6 cells in 2 mL of Basal medium) and incubated overnight at 37° C. with 5% CO2. LCLs were then treated with compound for 4 days without media changes; patient-derived iPSCs were seeded at ˜80% confluency and treated, as described above. Treatment with either a G4C2-ASO or Control-ASO (100 nM) was used as a control. ASO transfection was achieved using Lipofectamine RNAiMax (Life Technologies), following the manufacturer's protocol. After 4 days of treatment (with either compound or ASO), total RNA was extracted using the Quick-RNA Miniprep Kit (Zymo Research). RNA was quantified via Nanodrop and ˜1 μg of total RNA was reverse transcribed using qScript (Quantbio), according to the manufacturer's guidelines. RT-qPCR was performed on a QuantStudio™ Real-Time PCR Instrument (Applied Biosystems) using Power SYBR Green Master Mix (Applied Biosystems). Expression levels of mRNAs were normalized to GAPDH. See Table 2 for a list of primers used.

[4] = test system: r(G4C2)^exp-containing C9orf72 transcript; assay: C9orf72 variants by RT-qPCR in brain of +/+PWR500 BAC mice; format: in vivo, mouse; conditions: 3 weeks
Procedure: A total of 20 age- and gender-matched mice (12 +/+PWR500 [5 Male and 7 Female] and 8 WT [4 Male and 4 Female]), ranging from 18-21 weeks old were used in therapeutic efficacy studies (Table 4). Mice were treated with a single bolus injection of 33 nmol of compound 2 formulated in 1% (v/v) DMSO/99% water, administered by an intracerebroventricular injection (ICV). Three weeks post injection, mice were euthanized, and tissue was harvested for study.
Postmortem brain tissue was harvested and sliced along the sagittal plane at the midline. The left hemisphere was frozen for RNA and protein analysis. Frozen brain tissue was homogenized in 300 μL Tris-EDTA buffer with a 1:5 w/v ratio of 2× Protease and Phosphatase Inhibitors. RNA was extracted from half of the homogenized tissue solution (150 μL) using Triazol LS (added at a 1:3 ratio to the homogenized tissue). The Triazol/tissue solution was centrifuged for 15 minutes at 16,000 rpm and the supernatant was collected. An equal volume of 100% ethanol was added to the supernatant, and RNA was purified using the Direct-zol RNA Kit (Zymo Research) per the manufacturer's protocol. RT-qPCR was then performed as described above. Expression levels of mRNAs were normalized to mouse β-actin.

[5] = single ICV injection of 10 mg/kg, total brain tissue

CCOC(=O)C1=C(Nc2ccccc2)S/C(=C\c2ccc(OCCOCCOCCOCCNC(=O)CCCOc3ccc4c(c3)c3cc5c(C(=O)N[C@H](C)CN(C)C)nccc5c(C)c3n4C)c(O)c2)C1=O [ALS Compound Formula I]
IC50 [1]: ~0.5 µM | cleavage of r(G4C2)8 (r(G4C2)8): significant cleavage | toxicity [2]: no significant toxicity | short r(G4C2) repeat-containing transcripts significantly reduced (of eight) [3]: only one transcript, SOCS1, was significantly reduced | decrease of C9orf72 intron 1 abundance [4, 5]: ~25% | decrease of exon 2-3 abundance [4, 5]: ~20% | exon 1b abundance ([4]; single ICV injection): unchanged | exon 1b to exon 2 junction (human C9orf72 abundance) ([4]; single ICV injection): unchanged
